Data on 2 molecules can be found in patent publication US9486536B2 (Immunomedics, Inc., priority 2013, dated 2016).

For data set [1] the following is noted: relative to doxorubicin; cited from earlier work.
For data set [2], the system named is Daudi, Raji, Ramos and JVM-3 hematopoietic tumor lines. Nature of the data set: cytotoxicity of P2PDox-mAb conjugates to target cells. As to conditions: not shown. Format: cell-based. The source says:
The cytotoxicity of P2PDox-mAb conjugates to target cells was examined. hRS7-P2PDox and hMN-15-P2PDox were cytotoxic to MDA-MB-468, AG S, NCI-N87 and Capan-1 solid tumor cell lines (not shown). hMN-14-P2PDox was cytotoxic to Capan-1, BxPC-3 and AsPC-1 human pancreatic tumor lines and AGS, NCI-N87 and LS147T human gastric and colonic tumor lines (not shown). hLL2-P2PDOx was cytotoxic to Daudi, Raji, Ramos and JVM-3 hematopoietic tumor lines (not shown). IC50 values for the conjugates were in the nanomolar concentration range (not shown).

The target in another data set is CD22 (Homo sapiens, UniProt P20273). Nature of the data set: antibody binding to target antigen after conjugation.
Another data set relates to moderately active SLE. Nature of the data set: open-label study in SLE patients. The protocol: An open-label, single-center study of patients with moderately active SLE (total British Isles Lupus Assessment Group (BILAG) score 6 to 12) is conducted. Patients receive dosages of epratuzumab-P2PDox (conjugated at a drug/antibody ratio of 3.5) of 10, 20, 40 and 60 mg conjugate i.v. every other week for 3 injections, repeated 4 months later. Evaluations include safety, SLE activity (BILAG), blood levels of B and T cells, and human anti-epratuzumab antibody (HAHA) titers.

For data set [3], the system named is Non-Hodgkin's Lymphoma (NHL). Nature of the data set: treatment of NHL patients. Format: in vivo, human. The method, then:
A P2PDox-epratuzumab ADC is prepared as described in Examples 1 and 3 above. Seventeen patients with previously untreated or relapsed NHL receive 4 doses of 70, 100 or 150 mg P2PDox-epratuzumab injected i.v. every two weeks. Responses are assessed by CT scans, with other evaluations including adverse event, B-cell blood levels, serum epratuzumab levels and human anti-epratuzumab (HAHA) titers.

[4] abbreviates: 4 doses of 70, 100 or 150 mg i.v. every two weeks, 17 patients.

Take `COc1cccc2c1C(=O)c1c(O)c3c(c(O)c1C2=O)C[C@@](O)(C(=O)CO)C[C@@H]3O[C@H]1C[C@H](N2C=CCC2)[C@H](O)[C@H](C)O1` [2-pyrrolinodoxorubicin]: the “cytotoxicity, times that of doxorubicin” value in data set [1] is 500-1000 times.
With hLL2-P2PDox, the cytotoxicity result in data set [2] was “cytotoxic”. Further, in the data set with CD22, the “effect of conjugation on antibody binding” value is listed as “lack of effect of conjugation on antibody binding to target antigen”. Besides, the “decrease of total BILAG scores” value in the data set with moderately active SLE (all patients, 10, 20, 40 and 60 mg i.v. every other week for 3 injections, drug/antibody ratio 3.5) is “at least 50%”. In addition, the “patients with improvement in at least one BILAG B- or C-level disease activity” value in the data set on moderately active SLE (at 6, 10 and 18 weeks) is recorded as 93%. The “average decrease of B-cell levels” value with moderately active SLE (at 18 weeks) amounted to 35%. In the data set on moderately active SLE (human, in vivo), the “patients with BILAG decreases continuing to at least 18 weeks” value turned out to be 92% and the tolerability result is “well tolerated”. In addition, in data set [3] (setting [4]), the “complete response/complete response unconfirmed rate” value is 24% and the objective response rate is reported as 47%. For the same molecule, the “transient B-cell depletion” value in data set [3] (all dosage levels) was “up to 25%”. In addition, in data set [3] (human, in vivo), the “human anti-epratuzumab antibody (HAHA) in serum samples” value is “negative” and the “objective responses continuing for 30 weeks or more” value is “Four of the eight”. Besides, the safety issues result in data set [3] (reversible after interrupting therapy) is listed as “neutropenia up to Grade 3”.
